According to patent US20090028925A1, “Novel Phosphinic Acid-Containing Thyromimetics” (priority 2005, published 2009):
Where two headings read alike, the source gives them in different places.

Legend:
plasma cholesterol = experiment: Cholesterol lowering in hypercholesterolemic rats; type: in vivo; details: for % Cholesterol Lowering / change in vivo at 0.5 mg/kg/day: delivered p.o. (0.5 mg/kg/d), percentage change from pre-dose cholesterol; for change in vivo at 0.5 mg/kg/day: Rattus norvegicus, po, read-out: % Cholesterol Lowering; for cholesterol lowering: 0.5 mg/kg/d orally
[1] = molecular target: T1, human thyroid hormone receptors TRβ1 (Homo sapiens, UniProt P10828); experiment: Receptor binding to TRβ1 (gel filtration and scintillation proximity assay, labeled T3)
T1 construct: made in house; host or cells: Sf9 insect cells (baculovirus)
T1 sequence (P10828 1-461): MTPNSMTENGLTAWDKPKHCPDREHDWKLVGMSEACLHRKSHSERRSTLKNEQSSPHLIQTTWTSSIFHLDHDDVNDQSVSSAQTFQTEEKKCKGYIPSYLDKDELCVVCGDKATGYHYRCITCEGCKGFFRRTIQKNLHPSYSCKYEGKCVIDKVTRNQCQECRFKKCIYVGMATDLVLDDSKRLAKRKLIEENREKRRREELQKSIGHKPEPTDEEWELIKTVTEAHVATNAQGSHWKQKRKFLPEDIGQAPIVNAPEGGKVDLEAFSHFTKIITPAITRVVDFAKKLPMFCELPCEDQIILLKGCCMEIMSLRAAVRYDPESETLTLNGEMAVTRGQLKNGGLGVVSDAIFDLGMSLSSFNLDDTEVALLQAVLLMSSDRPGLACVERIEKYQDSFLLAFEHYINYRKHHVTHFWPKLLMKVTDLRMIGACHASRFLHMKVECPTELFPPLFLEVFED
T1 sequence (P19793 1-462 partner): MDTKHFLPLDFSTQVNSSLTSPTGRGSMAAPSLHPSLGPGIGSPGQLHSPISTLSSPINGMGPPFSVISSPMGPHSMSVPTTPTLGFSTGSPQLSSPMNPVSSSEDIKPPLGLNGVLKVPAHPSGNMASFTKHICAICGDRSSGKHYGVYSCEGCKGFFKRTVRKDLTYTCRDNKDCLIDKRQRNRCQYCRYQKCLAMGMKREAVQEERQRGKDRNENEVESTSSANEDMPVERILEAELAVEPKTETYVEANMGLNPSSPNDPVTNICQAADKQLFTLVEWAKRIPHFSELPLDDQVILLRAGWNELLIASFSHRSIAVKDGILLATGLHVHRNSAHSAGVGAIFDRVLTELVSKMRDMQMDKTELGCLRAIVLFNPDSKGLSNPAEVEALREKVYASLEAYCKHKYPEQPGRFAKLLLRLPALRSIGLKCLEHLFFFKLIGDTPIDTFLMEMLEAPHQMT
Protocol: (§1) Methods: Baculoviruses expressing TRα1, TRβ1 and RXRα were generated using cDNA and other reagents from Invitrogen (Carlsbad, Calif.). To produce TR/RXR heterodimer proteins, the sf9 insect cells were first grown to a density of 1-5×10^5 cells/mL. […] and RXRα baculovirus stocks were added to the cell culture with a ratio of 1 to 1 (multiplicity of infection=10). The cells were harvested three days after the infection.
(§2) Binding of compounds to either the TRα1 or TRβ1 were also performed by means of scintillation proximity assays (SPA). The SPA assay, a common method used for the quantitation of receptor-ligand equilibria, makes use of special beads coated with a scintillant and a capture molecule, copper, which binds to the histidine-tagged α or β receptor.

[2] = molecular target: T2, human thyroid hormone receptors TRα1 (Homo sapiens, UniProt P10827); experiment: Receptor binding to TRα1 (gel filtration and scintillation proximity assay, labeled T3)
T2 construct: made in house; host or cells: Sf9 insect cells (baculovirus)
T2 sequence (P10827 1-410 isoform P10827-2): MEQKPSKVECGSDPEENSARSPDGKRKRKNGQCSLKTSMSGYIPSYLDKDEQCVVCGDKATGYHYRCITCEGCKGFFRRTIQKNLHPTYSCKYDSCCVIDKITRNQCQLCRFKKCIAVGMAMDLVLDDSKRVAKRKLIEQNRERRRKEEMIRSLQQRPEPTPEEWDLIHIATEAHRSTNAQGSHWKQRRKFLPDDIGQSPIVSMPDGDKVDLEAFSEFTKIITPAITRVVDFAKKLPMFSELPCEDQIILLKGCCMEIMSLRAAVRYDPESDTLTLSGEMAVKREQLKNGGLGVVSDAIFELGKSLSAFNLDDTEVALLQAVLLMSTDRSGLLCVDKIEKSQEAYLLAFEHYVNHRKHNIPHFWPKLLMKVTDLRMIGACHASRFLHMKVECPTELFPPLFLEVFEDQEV
T2 sequence (P19793 1-462 partner): T1 sequence (P19793 1-462 partner)
Protocol: as §1, §2

Row | Ki ([1]; SPA data, read-out: Ki TRβ) | Ki ([2]; SPA data, read-out: Ki TRα) | SMILES | change in vivo at 0.5 mg/kg/day (plasma cholesterol) | also measured
1 |  |  | CC(C)c1cc(Cc2c(Cl)cc(OC[P@@]3(=O)OCC[C@@H](c4cccc(Cl)c4)O3)cc2Cl)ccc1O (relative stereo) [Compound 13-11, Cis(S)-2-[(3,5-dichloro-4-(4′-hydroxy-3′-iso-propylbenzyl)phenoxy)methyl]-4-(3-chlorophenyl)-2-oxo-2λ^5-[1,3,2]-dioxaphosphonane] |  | % Cholesterol Lowering (plasma cholesterol): −24.8%
2 |  |  | CCC(C)c1cc(Cc2c(C)cc(OCP(=O)(OCOC(=O)C(C)(C)C)OCOC(=O)C(C)(C)C)cc2C)ccc1O (centres unmarked) [Compound 12-4, Di-(pivaloyloxymethyl)[3,5-dimethyl-4-(4′-hydroxy-3′-sec-butylbenzyl)phenoxy]methylphosphonate] | -30.5% | 
3 |  |  | CC(C)c1cc(Oc2c(Br)cc(CP(=O)(OCOC(=O)C(C)(C)C)OCOC(=O)C(C)(C)C)cc2Br)ccc1O [Compound 12-5, Di-(pivaloyloxymethyl)[3,5-dibromo-4-(4′-hydroxy-3′-iso-propylphenoxy)benzyl]phosphonate] | -32.5% | cholesterol lowering (plasma cholesterol; hypercholesterolemic rats): demonstrated a significant lowering of cholesterol
4 |  |  | CC(C)c1cc(Oc2c(I)cc(OCP(=O)(OCOC(=O)C(C)(C)C)OCOC(=O)C(C)(C)C)cc2I)ccc1O [Compound 12-7, Di(pivaloyloxymethyl)[3,5-diiodo-4-(4′-hydroxy-3′-iso-propylphenoxy)phenoxy]methylphosphonate] |  | % Cholesterol Lowering (plasma cholesterol): −39.1%
5 |  |  | CC(C)c1cc(Cc2c(Cl)cc(OCP(=O)(OCOC(=O)C(C)(C)C)OCOC(=O)C(C)(C)C)cc2Cl)ccc1O [Compound 12-8, Di(pivaloyloxymethyl)[3,5-dichloro-4-(4′-hydroxy-3′-iso-propylbenzyl)phenoxy]methylphosphonate] | -33.7% | 
6 |  |  | CC(C)c1cc(Oc2c(Cl)c(F)nc(NCP(=O)(OCOC(=O)C(C)(C)C)OCOC(=O)C(C)(C)C)c2Cl)ccc1O [Compound 12-9] |  | efficacy in lowering cholesterol (plasma cholesterol; another experiment, hypercholesterolemic rats): not efficacious
7 |  |  | CCC(C)c1cc(Cc2c(C)cc(OC[P@@]3(=O)OCC[C@@H](c4cccc(Cl)c4)O3)cc2C)ccc1O (stereo partly drawn) [Compound 13-8, Cis-(S)-2-[(3,5-dimethyl-4-(4′-hydroxy-3′-sec-butylbenzyl)phenoxy)methyl]-4-(3-chlorophenyl)-2-oxo-2λ^5-[1,3,2]-dioxaphosphonane] | -26.5% | 
8 |  |  | CC(C)c1cc(Oc2c(Br)cc(C[P@@]3(=O)OCC[C@@H](c4cccc(Cl)c4)O3)cc2Br)ccc1O [Compound 13-9, Cis-(S)-2-[3,5-dibromo-4-(4′-hydroxy-3′-iso-propylphenoxy)benzyl]-4-(3-chlorophenyl)-2-oxo2λ^5-[1,3,2]-dioxaphosphonane] | -10.9% | cholesterol lowering (plasma cholesterol; hypercholesterolemic rats): failed to demonstrate cholesterol lowering
9 |  |  | CC(C)c1cc(Oc2c(I)cc(OC[P@@]3(=O)OCC[C@@H](c4cccc(Cl)c4)O3)cc2I)ccc1O [Compound 13-10] | -25.8% | 
10 |  |  | CCOC(=O)[C@H](C)NP(=O)(COc1cc(C)c(Cc2ccc(O)c(C(C)CC)c2)c(C)c1)N[C@@H](C)C(=O)OCC (stereo partly drawn) [Compound 15-4, di-N-(L-1-ethoxycarbonylethylamino)[3,5-dimethyl-4-(4′-hydroxy-3′-sec-butylbenzyl)phenoxy]methylphosphonamide] | -39.6% | 
11 |  |  | CCOC(=O)[C@H](C)NP(=O)(Cc1cc(Br)c(Oc2ccc(O)c(C(C)C)c2)c(Br)c1)N[C@@H](C)C(=O)OCC [Compound 15-5, di-N-(L-1-ethoxycarbonylethylamino)[3,5-dibromo-4-(4′-hydroxy-3′-iso-propylphenoxy)benzyl]phosphonamide] | -29.9% | cholesterol lowering (plasma cholesterol; hypercholesterolemic rats): demonstrated a significant lowering of cholesterol
12 |  |  | CCOC(=O)[C@H](C)NP(=O)(COc1cc(Cl)c(Cc2ccc(O)c(C(C)C)c2)c(Cl)c1)N[C@@H](C)C(=O)OCC [Compound 15-7] |  | % Cholesterol Lowering (plasma cholesterol): −29.1%
13 |  |  | Cc1cc(OCP(=O)(O)O)cc(C)c1C(=O)c1ccc(O)c(C(C)C)c1 [Compound 25, [3,5-dimethyl-4-(3′-iso-propyl-4′-hydroxybenzoyl)phenoxy]methylphosphonic acid] |  | Ki [1]: 363 nM; Ki [2]: > 2000 nM
14 |  |  | Cc1cc(OCCP(=O)(O)O)cc(C)c1Cc1ccc(O)c(C(C)C)c1 [Compound 26, 2-[3,5-dimethyl-4-(3′-iso-propyl-4′-hydroxybenzyl)phenoxy]ethylphosphonic acid] |  | Ki ([1]; read-out: Ki TRβ): 87 nM; Ki ([2]; read-out: Ki TRα): 594 nM
15 | > 2000 nM | > 2000 nM | COc1ccc(Oc2c(C)cc(CCP(=O)(O)O)cc2C)cc1C(C)C [Compound 30, 2-[3,5-dimethyl-4-(3′-iso-propyl-4′-methoxyphenoxy)phenyl]ethylphosphonic acid] |  | 
16 | 96 nM | 284 nM | Cc1cc(CC(=O)CP(=O)(O)O)cc(C)c1Oc1ccc(O)c(C(C)C)c1 [Compound 32, 3-[3,5-dimethyl-4-(4′-hydroxy-3′-iso-propylphenoxy)]phenyl-2-oxopropylphosphonic acid] |  | 
17 | 6.5 nM | 118 nM | Cc1cc(OCP(=O)(O)O)cc(C)c1Cc1ccc(O)c(I)c1 [Compound 34, [3,5-dimethyl-4-(4′-hydroxy-3′-iodobenzyl)phenoxy]methylphosphonic acid] |  | 
18 | > 2000 nM | > 2000 nM | Cc1cc(OCP(=O)(O)O)cc(C)c1Cc1ccc(O)c(C(=O)O)c1 [Compound 35, [3,5-dimethyl-4-(3′-carboxyl-4′-hydroxy-benzyl)phenoxy]methylphosphonic acid] |  | 
19 | 106 nM | > 2000 nM | Cc1cc(OCP(=O)(O)O)cc(C)c1Cc1ccc(O)c(C(=O)NC(C)C)c1 [Compound 36, [3,5-dimethyl-4-(4′-hydroxy-3′-iso-propylcarbamoylbenzyl)-phenoxy]methylphosphonic acid] |  | 
20 | 58 nM | > 2000 nM | Cc1cc(OCP(=O)(O)O)cc(C)c1Cc1ccc(O)c(C(=O)c2ccc(F)cc2)c1 [Compound 39, [3,5-dimethyl-4-[3′-(4-fluoro-benzoyl)-4′-hydroxy-benzyl]phenoxy]methylphosphonic acid] |  | 
21 | 181 nM | > 2000 nM | Cc1cc(C(=O)CP(=O)(O)O)cc(C)c1Cc1ccc(O)c(Cc2ccccc2)c1 [Compound 41, [3,5-dimethyl-4-[3′-benzyl-4′-hydroxy-benzyl]benzoyl]methylphosphonic acid] |  | 
22 | 280 nM | > 2000 nM | CC(C)c1cc(Cc2c(Cl)cc(C(=O)CP(=O)(O)O)cc2Cl)ccc1F [Compound 41-3, 2-[3,5-dichloro-4-(4-fluoro-iso-propyl-benzyl)-phenyl]-2-oxo-ethylphosphonic acid] |  | 
23 | 108 nM | 363 nM | Cc1cc(OCP(=O)(O)O)cc(C)c1Sc1ccc(O)c(C(C)C)c1 [Compound 43, [3,5-dimethyl-4-S-[(4′-hydroxy-3′-iso-propylphenyl)sulfanyl]phenoxy]methylphosphonate] |  | 
24 | 44 nM | 832 nM | Cc1cc(OCP(=O)(O)O)cc(C)c1Cc1ccc(O)c(S(=O)(=O)C(C)C)c1 [Compound 44, [3,5-dimethyl-4-[4′-hydroxy-3′-(iso-propylsulfonyl)benzyl]phenoxy]methylphosphonic acid] |  | 
25 |  |  | Cc1cc(SCP(=O)(O)O)cc(C)c1Oc1ccc(O)c(C(C)C)c1 [Compound 54, [3,5-Dimethyl-4-(4′-hydroxy-3′-iso-propylphenoxy)benzenesulfanyl]methylphosphonic acid] |  | Ki ([1]; read-out: Ki TRβ): 42 nM; Ki ([2]; read-out: Ki TRα): 143 nM
